Target: T1, human A1 AR (Homo sapiens, UniProt P30542)
T1 sequence (P30542 1-326): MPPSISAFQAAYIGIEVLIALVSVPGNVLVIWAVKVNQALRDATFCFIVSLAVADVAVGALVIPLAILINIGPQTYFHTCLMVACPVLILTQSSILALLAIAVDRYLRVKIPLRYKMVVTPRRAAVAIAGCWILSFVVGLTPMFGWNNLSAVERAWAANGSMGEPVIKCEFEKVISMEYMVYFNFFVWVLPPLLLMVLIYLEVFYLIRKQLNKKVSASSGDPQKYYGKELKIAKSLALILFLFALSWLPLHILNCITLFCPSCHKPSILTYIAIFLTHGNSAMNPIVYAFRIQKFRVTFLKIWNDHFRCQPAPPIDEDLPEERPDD
Assay: Competition radioligand binding, human A1 AR

Ki: 4.18 ± 0.92 µM
SMILES: Nc1nc2c(cnn2CCCc2ccc(OCC(=O)NCCNCCNC(=O)CCCCCNC(=O)COc3ccc(/C=C/C4=[N+]5C(=Cc6ccc(-c7ccc[nH]7)n6[B-]5(F)F)C=C4)cc3)cc2)c2nc(-c3ccco3)nn12 [Compound 14]

From PMC3081901 (Bioorganic & medicinal chemistry letters, 2010)
